From PMC6943709, “Synergistic Inhibition of Acetylcholinesterase by Alkaloids Derived from Stephaniae Tetrandrae Radix, Coptidis Rhizoma and Phellodendri Chinensis Cortex” (Molecules, 2019)
Read-outs that look alike come from different tables or passages of the source.

Target: T1, Acetylcholinesterase (AChE) (Mus musculus, UniProt P21836)
T1 construct: The assay medium consisted of brain lysate (5 mg/mL) containing different concentrations of testing drugs; from tissue; host or cells: mouse brain lysate
T1 sequence (P21836 32-614): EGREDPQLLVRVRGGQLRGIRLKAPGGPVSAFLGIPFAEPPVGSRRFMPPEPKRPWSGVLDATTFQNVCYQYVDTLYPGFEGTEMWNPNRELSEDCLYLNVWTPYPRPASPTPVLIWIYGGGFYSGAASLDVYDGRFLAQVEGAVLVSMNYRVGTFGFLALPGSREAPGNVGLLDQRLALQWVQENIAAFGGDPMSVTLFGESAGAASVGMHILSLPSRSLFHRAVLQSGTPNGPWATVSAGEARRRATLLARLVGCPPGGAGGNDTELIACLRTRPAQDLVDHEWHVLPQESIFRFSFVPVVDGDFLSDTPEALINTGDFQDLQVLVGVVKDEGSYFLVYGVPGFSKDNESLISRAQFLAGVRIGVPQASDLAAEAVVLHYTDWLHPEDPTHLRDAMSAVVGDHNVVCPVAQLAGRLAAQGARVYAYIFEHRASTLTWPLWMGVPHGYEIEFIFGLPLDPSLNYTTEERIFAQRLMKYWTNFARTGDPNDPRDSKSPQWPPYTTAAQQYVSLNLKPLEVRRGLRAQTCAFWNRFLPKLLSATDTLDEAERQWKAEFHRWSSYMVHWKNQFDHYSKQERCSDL
Test: biochemical
Assay type: biochemical
Details: for AChE Inhibitory Activity: ranking by IC50, molar concentration (alkaloids)
Description: The combinations of fangchinoline–coptisine/berberine at concentration ratios of 1:5, 1:2, 1:1, and 2:1 were individually prepared by mixing appropriate volumes of fangchinoline and coptisine or berberine stock solutions. The solutions of fangchinoline–coptisine combinations (with initial system concentrations 4:20, 10:20, 20:20, and 20:10 μM, respectively) were diluted into seven concentrations by DMSO, respectively. The solutions of fangchinoline–berberine combinations (with initial system concentrations 2:10, 5:10, 10:10, and 20:10 μM, respectively) were diluted into seven concentrations by DMSO, respectively. The stocks of tetrandrine, epiberberine, and palmatine were taken appropriately and diluted into six concentrations (with initial system concentrations 30, 100, and 50 μM, respectively) by DMSO, respectively.
The mouse brain lysate (0.1 g/mL, containing 10 mM HEPES (pH 7.4), 1 mM EDTA, 1 mM EGTA, 150 mM NaCl, 0.5% triton X-100, 10 μg/mL leupeptin, 10 μg/mL aprotinin, 10 μg/mL pepstatin, and 50 μg/mL benzamidine HCL) was prepared. AChE enzymatic activity was assayed by 96-well microtiter plate with a final volume of 200 μL, according to the Ellman method. […] Briefly, the mixture of brain lysate containing the testing drugs, Na2HPO4 buffer, and iso-OMPA solution were incubated at 37 °C for 10 min, and then ATCh and DNTB solutions were added. The reaction solution was incubated at 37 °C for 30 min, and AChE activity was determined by measuring the absorbance at 405 nm. To eliminate the drug–solvent influence on AChE enzymatic activity, the concentration of DMSO was controlled at 0.5% in the 200 μL reaction volume. In order to correct for color interference at 405 nm, a background color contrast group without brain lysate and a drug color contrast group without brain lysate were set, respectively. […] Tacrine was used as a positive control. Protein concentrations were measured with a kit from Bio-Rad (Hercules, CA, USA).

| Structure (SMILES) | IC50 [µM] | AChE Inhibitory Activity | IC50 (single alkaloids, mouse brain lysate, Mean ± SEM, n = 3, read-out: IC50) [µM] | AChE inhibitory potency (mouse brain lysate, result in words) |
| --- | --- | --- | --- | --- |
| COc1ccc2cc3[n+](cc2c1OC)CCc1cc2c(cc1-3)OCO2 [Berberine] | 2.33 ± 0.16 | +++ (for molar concentration, “+++”, “++”, and “+” represent IC50 values of 1–5, 5–10 and 10–20 μM, respectively) |  |  |
| c1c2c(cc3c1OCO3)-c1cc3ccc4c(c3c[n+]1CC2)OCO4 [Coptisine] | 13.5 ± 1.48 | + (for molar concentration, “+++”, “++”, and “+” represent IC50 values of 1–5, 5–10 and 10–20 μM, respectively) |  |  |
| COc1cc2c(cc1OC)-c1cc3ccc4c(c3c[n+]1CC2)OCO4 [Epiberberine] |  | + (for molar concentration, “+++”, “++”, and “+” represent IC50 values of 1–5, 5–10 and 10–20 μM, respectively) | 18.7 ± 0.83 |  |
| COc1ccc2cc1Oc1ccc(cc1)C[C@H]1c3cc(c(OC)cc3CCN1C)Oc1c(O)c(OC)cc3c1[C@H](C2)N(C)CC3 [Fangchinoline] | 2.17 ± 0.05 | +++ (for molar concentration, “+++”, “++”, and “+” represent IC50 values of 1–5, 5–10 and 10–20 μM, respectively) |  |  |
| COc1cc2c(cc1OC)-c1cc3ccc(OC)c(OC)c3c[n+]1CC2 [Palmatine] | 6.52 ± 0.84 | ++ (for molar concentration, “+++”, “++”, and “+” represent IC50 values of 1–5, 5–10 and 10–20 μM, respectively) |  |  |
| COc1ccc2cc1Oc1ccc(cc1)C[C@H]1c3cc(c(OC)cc3CCN1C)Oc1c(OC)c(OC)cc3c1[C@H](C2)N(C)CC3 [Tetrandrine] |  | − |  | did not show AChE inhibitory potency |
